US7695930B2, “Method for the detection, identification and/or quantification of microoganisms with peptidase activity using phenoxazinone derivatives as enzyme substrates” (Biomerieux, priority 2003, dated 2010)

How the values were obtained:
Format in all cases: cell-based
Enterococcus faecalis = experiment: Leucine-peptidase detection on agar medium (Example 11); on color of the colony: key: B corresponds to fluorescent blue; R corresponds to pink
Experimental: (§1) The detection medium was prepared by mixing 1.4 g of biogelytone (bioMérieux), 0.84 g of meat extract (bioMérieux), 2.24 g of NaCl (Merck), 280 μl of a solution of IPTG (isopropylthio-β-D-galactopyranoside, BIOSYNTH) in water (concentration 10 g/l) and 4.2 g of European agar (bioMérieux).
(§2) The substrate of the invention obtained in Example 2, in which the amino acid is leucine (leucine-9-aminobenzo[a]phenoxazin-5-one or Leu-ABP), or else a substrate of the prior art, which is leucine-aminomethylcoumarin (Leu-AMC, BACHEM), was then added in the following way: 280 ml of osmosed water were added to the medium, and the mixture was melted in a waterbath at 100° C. The mixture was autoclaved for 15 min at 121° C. and cooled to 50° C. in a waterbath.
(§3) The medium was then poured into Petri dishes.
(§4) The coloration of these colonies, the diffusion, and also the intensity of this coloration were noted.
(§5) The results were expressed as intensity of coloration using an arbitrary scale ranging from 0 to 4 as a basis and also as diffusion also using an arbitrary scale ranging from 0 to 4 as a basis.

Staphylococcus aureus = experiment: as above
Experimental: as §1, §2, §3, §4, §5

Escherichia coli = experiment: as above
Experimental: as §1, §2, §3, §4, §5

[1] = test system: Staphylococcus aureus (NCTC 6571); experiment: Alanine peptidase detection, substrates with one to three amino acids (Example 15); parameters: key to color of the colony: R=pink; RP=pale pink; I=colorless; conditions: 50 mg/l
Experimental: (§6) 1000 ml of Columbia medium was melted in a waterbath at 100° C. and autoclaved at 121° C. for 15 min. It was then cooled to 50° C. in a waterbath.
(§7) This medium was separated into 5 flasks of 200 ml, and then, added at 50° C., as substrates, was that of Example 2 for which A is: • medium 1: L-alanine (L-alanine-9-aminobenzo[a]phenoxazin-5-one or A-ABP), • medium 2: L-alanine-L-alanine (L-alanine-L-alanine-9-aminobenzo-[a]phenoxazin-5-one or AA-ABP), • medium 3: L-alanine-L-alanine-L-alanine (L-alanine-L-alanine-L-alanine-9-aminobenzo[a]phenoxazin-5-one or AAA-ABP), • medium 4: L-alanine-glycine (L-alanine-glycine-9-aminobenzo[a]phenoxazin-5-one or AG-ABP), and • medium 5: glycine-L-alanine (glycine-L-alanine-9-aminobenzo[a]phenoxazin-5-one or GA-ABP), each substrate being solubilized in DMSO and used at a final concentration of 50 mg/l.
as §3
(§8) Nine microorganism strains derived from the Applicant's collection, suspended in physiological saline, were seeded in colonies on the media prepared in point 15.1 above according to a multipoint inoculation in a proportion of 15 000 cfu/spot. The dishes were incubated at 37° C. for 48 hours. The colonies formed were examined visually after incubation for 24 and 48 hours.
(§9) The results are expressed in Tables 7 and 8 hereinafter according to the rules and the nomenclature stated in paragraph 11.3 and where R=pink, RP=pale pink and I=colorless.

[2] = test system: Pseudomonas aerigunosa (NCTC 10038); experiment: as above; parameters: key to color of the colony: R=pink; RP=pale pink; I=colorless; conditions: 50 mg/l
Experimental: as §6, §7, §3, §8, §9

[3] = test system: Escherichia coli (NCTC 10418); experiment: as above; parameters: key to color of the colony: R=pink; RP=pale pink; I=colorless; conditions: 50 mg/l
Experimental: as §6, §7, §3, §8, §9

[4] = test system: Staphylococcus epidermis (NCTC 11047); experiment: as above; parameters: key to color of the colony: R=pink; RP=pale pink; I=colorless; conditions: 50 mg/l
Experimental: as §6, §7, §3, §8, §9

[5] = test system: Listeria monocytogenes (NCTC 11994); experiment: as above; parameters: key to color of the colony: R=pink; RP=pale pink; I=colorless; conditions: 50 mg/l
Experimental: as §6, §7, §3, §8, §9

[6] = test system: Acinetobacter baumannii (ATCC 19606); experiment: as above; parameters: key to color of the colony: R=pink; RP=pale pink; I=colorless; conditions: 50 mg/l
Experimental: as §6, §7, §3, §8, §9

[7] = test system: Micrococcus luteus (NCTC611); experiment: as above; parameters: key to color of the colony: R=pink; RP=pale pink; I=colorless; conditions: 50 mg/l
Experimental: as §6, §7, §3, §8, §9

[8] = test system: Enterobacter clocae (NCTC 11936); experiment: as above; parameters: key to color of the colony: R=pink; RP=pale pink; I=colorless; conditions: 50 mg/l
Experimental: as §6, §7, §3, §8, §9

leucine-9-aminobenzo[a]phenoxazin-5-one [Leu-ABP]
0.75: intensity of coloration, scale 0 to 4 (Escherichia coli; 24 h, 400 mg/l)
0.3 mm: growth diameter (Enterococcus faecalis; 24 h, 25 mg/l) | growth diameter (Enterococcus faecalis; 24 h, 50 mg/l) | growth diameter (Enterococcus faecalis; 24 h, 100 mg/l) | growth diameter (Enterococcus faecalis; 24 h, 200 mg/l) | growth diameter (Enterococcus faecalis; 24 h, 400 mg/l) | growth diameter (Enterococcus faecalis; 48 h, 25 mg/l) | growth diameter (Enterococcus faecalis; 48 h, 50 mg/l) | growth diameter (Enterococcus faecalis; 48 h, 100 mg/l) | growth diameter (Enterococcus faecalis; 48 h, 200 mg/l) | growth diameter (Enterococcus faecalis; 48 h, 400 mg/l) | growth diameter (Staphylococcus aureus; 24 h, 25 mg/l)
1.7 mm: growth diameter (Escherichia coli; 24 h, 50 mg/l) | growth diameter (Escherichia coli; 24 h, 200 mg/l) | growth diameter (Escherichia coli; 48 h, 200 mg/l)
0.5: intensity of coloration, scale 0 to 4 (Enterococcus faecalis; 48 h, 400 mg/l) | intensity of coloration, scale 0 to 4 (Escherichia coli; 24 h, 50 mg/l) | intensity of coloration, scale 0 to 4 (Escherichia coli; 48 h, 50 mg/l)
0.25: intensity of coloration, scale 0 to 4 (Staphylococcus aureus; 48 h, 25 mg/l) | intensity of coloration, scale 0 to 4 (Escherichia coli; 48 h, 25 mg/l)
1.8 mm: growth diameter (Escherichia coli; 24 h, 25 mg/l) | growth diameter (Escherichia coli; 24 h, 100 mg/l) | growth diameter (Escherichia coli; 24 h, 400 mg/l) | growth diameter (Escherichia coli; 48 h, 25 mg/l) | growth diameter (Escherichia coli; 48 h, 50 mg/l) | growth diameter (Escherichia coli; 48 h, 100 mg/l) | growth diameter (Escherichia coli; 48 h, 400 mg/l)
R: color of the colony (Enterococcus faecalis; 24 h, 25 mg/l) | color of the colony (Enterococcus faecalis; 24 h, 50 mg/l) | color of the colony (Enterococcus faecalis; 48 h, 25 mg/l) | color of the colony (Enterococcus faecalis; 48 h, 50 mg/l) | color of the colony (Enterococcus faecalis; 48 h, 100 mg/l) | color of the colony (Enterococcus faecalis; 48 h, 400 mg/l) | color of the colony (Staphylococcus aureus; 48 h, 25 mg/l) | color of the colony (Escherichia coli; 24 h, 25 mg/l) | color of the colony (Escherichia coli; 24 h, 50 mg/l) | color of the colony (Escherichia coli; 24 h, 100 mg/l) | color of the colony (Escherichia coli; 24 h, 400 mg/l) | color of the colony (Escherichia coli; 48 h, 25 mg/l) | color of the colony (Escherichia coli; 48 h, 50 mg/l) | color of the colony (Escherichia coli; 48 h, 100 mg/l)
0.7 mm: growth diameter (Staphylococcus aureus; 48 h, 25 mg/l)
0.2 mm: growth diameter (Staphylococcus aureus; 24 h, 50 mg/l) | growth diameter (Staphylococcus aureus; 48 h, 50 mg/l)
0.0: intensity of coloration, scale 0 to 4 (Enterococcus faecalis; 24 h, 25 mg/l) | intensity of coloration, scale 0 to 4 (Enterococcus faecalis; 24 h, 50 mg/l) | intensity of coloration, scale 0 to 4 (Enterococcus faecalis; 48 h, 25 mg/l) | intensity of coloration, scale 0 to 4 (Enterococcus faecalis; 48 h, 50 mg/l) | intensity of coloration, scale 0 to 4 (Enterococcus faecalis; 48 h, 100 mg/l) | intensity of coloration, scale 0 to 4 (Escherichia coli; 24 h, 25 mg/l) | intensity of coloration, scale 0 to 4 (Escherichia coli; 24 h, 100 mg/l)

L-alanyl-9-aminobenzo[a]phenoxazin-5-one [Ala-ABP]
0 mm: growth diameter ([1]; 24 h) | growth diameter ([4]; 24 h) | growth diameter ([4]; 48 h) | growth diameter ([7]; 24 h) | growth diameter ([7]; 48 h)
2 mm: growth diameter ([1]; 48 h) | growth diameter ([5]; 24 h) | growth diameter ([5]; 48 h)
I: color of the colony ([1]; 48 h) | color of the colony ([5]; 24 h)
3 mm: growth diameter ([2]; 24 h) | growth diameter ([2]; 48 h) | growth diameter ([3]; 24 h) | growth diameter ([3]; 48 h) | growth diameter ([6]; 24 h) | growth diameter ([6]; 48 h) | growth diameter ([8]; 24 h) | growth diameter ([8]; 48 h)
R: color of the colony ([2]; 24 h) | color of the colony ([2]; 48 h) | color of the colony ([3]; 24 h) | color of the colony ([3]; 48 h) | color of the colony ([5]; 48 h) | color of the colony ([6]; 24 h) | color of the colony ([6]; 48 h) | color of the colony ([8]; 24 h) | color of the colony ([8]; 48 h)
